Data on seven compounds can be found in patent US20250353891A1 (MEDIMMUNE LIMITED, priority 2022, published 2025).

For assay [1], the target named is human GLP-1 receptor (hGLP-1R) (Homo sapiens, UniProt P43220). The assay can be described thus: cAMP production (HTRF) in CHO cells expressing hGLP-1R. Format: cell-based. Further details: expressed in transfected cells. The conditions noted are these: for EC50: Table 6, peptides modified at position 17, cAMP in CHO hGLP-1R cells, geometric mean, read-out: hGLP-1R EC50; for % Relative Potency Ratio: Table 6, % GLP-1R activity relative to GLP-1 / % GlucR activity relative to glucagon. In short, it runs like this: (§1)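 Potency values represent EC50 from 4-parameter logistic curves of HTRF % Delta F signal. Receptor-expressing CHO cells (hGCGR 2×10^5 cells/mL, hGLP-1R 1×10^5 cells/mL) were exposed for 30 min at room temperature before two-step cAMP detection.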
A general note: Changes in cAMP serve as a functional read-out for many G protein-coupled receptors.

Assay [2] addresses human glucagon receptor (hGCGR) (Homo sapiens, UniProt P47871). The assay can be described thus: cAMP production (HTRF) in CHO cells expressing hGCGR. It is filed as cell-based. Further details: expressed in transfected cells. The settings on record: Table 6, peptides modified at position 17; cAMP in CHO hGCGR cells; geometric mean; read-out: hGluc-R EC50. In outline:
as §1

Molecules are shown by their SMILES. Starred links: 1 amine or outer side, 2 acyl side, 3 side chain; linkers in the order of their positions; H or OH if unused. Non-standard residues stand in square brackets, D forms with d. Residues, ends and D or L forms follow the SMILES beside them. Groups on a side chain read outwards from the residue. *: point of attachment. C20 diacid = O=C(O)CCCCCCCCCCCCCCCCCCC(=O)*; C18 diacid = O=C(O)CCCCCCCCCCCCCCCCC(=O)*; γGlu = O=C(O)[C@H](CCC(=O)[*:2])N[*:1]; αMeF = C[C@](N)(Cc1ccccc1)C(=O)O; AEEA = NCCOCCOCC(=O)O; Aib = CC(C)(N)C(=O)O

Sequence of human GLP-1 receptor (hGLP-1R) (P43220 24-463): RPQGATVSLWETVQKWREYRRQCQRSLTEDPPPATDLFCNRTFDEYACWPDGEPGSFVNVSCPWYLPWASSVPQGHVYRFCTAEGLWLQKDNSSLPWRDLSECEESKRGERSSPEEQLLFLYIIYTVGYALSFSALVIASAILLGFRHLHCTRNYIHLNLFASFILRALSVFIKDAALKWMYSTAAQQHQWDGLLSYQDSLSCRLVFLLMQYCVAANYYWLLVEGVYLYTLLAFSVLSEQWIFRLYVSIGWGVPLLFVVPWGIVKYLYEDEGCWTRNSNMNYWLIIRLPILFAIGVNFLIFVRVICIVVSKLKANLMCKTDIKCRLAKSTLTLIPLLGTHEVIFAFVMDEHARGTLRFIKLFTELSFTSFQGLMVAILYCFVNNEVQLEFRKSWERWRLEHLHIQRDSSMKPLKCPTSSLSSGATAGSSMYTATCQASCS
Sequence of human glucagon receptor (hGCGR) (P47871 26-477): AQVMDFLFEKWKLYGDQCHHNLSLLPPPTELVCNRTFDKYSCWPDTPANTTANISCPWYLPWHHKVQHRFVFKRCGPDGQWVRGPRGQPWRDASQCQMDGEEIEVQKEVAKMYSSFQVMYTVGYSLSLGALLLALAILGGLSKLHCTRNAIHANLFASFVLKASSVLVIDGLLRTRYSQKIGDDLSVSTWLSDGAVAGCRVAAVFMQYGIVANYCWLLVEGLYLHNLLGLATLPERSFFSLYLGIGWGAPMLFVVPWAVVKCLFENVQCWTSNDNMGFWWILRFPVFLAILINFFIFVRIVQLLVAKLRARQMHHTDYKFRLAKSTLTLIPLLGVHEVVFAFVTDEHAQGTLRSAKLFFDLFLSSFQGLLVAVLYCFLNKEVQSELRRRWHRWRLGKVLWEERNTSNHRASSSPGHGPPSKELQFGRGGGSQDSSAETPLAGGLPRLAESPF

In the case of `CC(C)C[C@H](NC(=O)[C@H](CC(=O)O)NC(=O)[C@H](CC(C)C)NC(=O)[C@](C)(Cc1ccccc1)NC(=O)[C@H](CCCCN)NC(=O)[C@H](CO)NC(=O)[C@@H](NC(=O)[C@H](CC(=O)O)NC(=O)[C@H](CO)NC(=O)[C@@H](NC(=O)[C@H](Cc1ccccc1)NC(=O)[C@@H](NC(=O)CNC(=O)[C@H](CCC(N)=O)NC(=O)C(C)(C)NC(=O)[C@@H](N)Cc1c[nH]cn1)[C@@H](C)O)[C@@H](C)O)C(C)C)C(=O)N[C@@H](CCCCNC(=O)COCCOCCNC(=O)COCCOCCNC(=O)CC[C@H](NC(=O)CCCCCCCCCCCCCCCCCCC(=O)O)C(=O)O)C(=O)N[C@@H](CCCNC(=N)N)C(=O)N[C@@H](C)C(=O)N[C@@H](CCC(N)=O)C(=O)N[C@@H](CC(=O)O)C(=O)N[C@@H](Cc1ccccc1)C(=O)N[C@H](C(=O)N[C@@H](CCCNC(=N)N)C(=O)N[C@@H](Cc1c[nH]c2ccccc12)C(=O)N[C@@H](CC(C)C)C(=O)N[C@@H](CC(C)C)C(=O)NC(C)(C)C(=O)N[C@@H](CCC(=O)O)C(=O)O)C(C)C` [Peptide 486], in assay [1], the EC50 (usually the midpoint of the concentration-response curve) worked out at 420 pM and the “% Relative Potency Ratio” value worked out at 0.8. For the same compound, the EC50 in assay [2] stood at 166 pM.

With `CC(C)C[C@H](NC(=O)[C@H](Cc1c[nH]c2ccccc12)NC(=O)[C@H](CCC(N)=O)NC(=O)[C@@H](NC(=O)[C@H](Cc1ccccc1)NC(=O)[C@H](CC(=O)O)NC(=O)[C@H](CCCNC(=N)N)NC(=O)[C@H](C)NC(=O)[C@H](CCCNC(=N)N)NC(=O)[C@H](CCCCNC(=O)COCCOCCNC(=O)COCCOCCNC(=O)CC[C@H](NC(=O)CCCCCCCCCCCCCCCCC(=O)O)C(=O)O)NC(=O)[C@@H](NC(=O)[C@H](CC(=O)O)NC(=O)[C@H](CC(C)C)NC(=O)[C@](C)(Cc1ccccc1)NC(=O)[C@H](CCCCN)NC(=O)[C@H](CO)NC(=O)[C@@H](NC(=O)[C@H](CC(=O)O)NC(=O)[C@H](CO)NC(=O)[C@@H](NC(=O)[C@H](Cc1ccccc1)NC(=O)[C@@H](NC(=O)CNC(=O)[C@H](CCC(N)=O)NC(=O)C(C)(C)NC(=O)[C@@H](N)Cc1c[nH]cn1)[C@@H](C)O)[C@@H](C)O)C(C)C)[C@@H](C)O)C(C)C)C(=O)N[C@@H](CC(C)C)C(=O)NC(C)(C)C(=O)N[C@H](C(=O)N[C@@H](CCC(=O)O)C(=O)O)[C@@H](C)O` [Peptide 487] (H-H[Aib]QGTFTSDVSK[αMeF]LDTK([AEEA-AEEA-γGlu-C18 diacid])RARDFVQWLL[Aib]TE-OH), in assay [1], the EC50 amounted to 65.5 pM and the “% Relative Potency Ratio” value came to 5.0. In addition, the EC50 in assay [2] was 164 pM.

Turning to `CC(C)C[C@H](NC(=O)[C@H](Cc1c[nH]c2ccccc12)NC(=O)[C@H](CCC(N)=O)NC(=O)[C@@H](NC(=O)[C@H](Cc1ccccc1)NC(=O)[C@H](CC(=O)O)NC(=O)[C@H](CCCNC(=N)N)NC(=O)[C@H](C)NC(=O)[C@H](CCCNC(=N)N)NC(=O)[C@H](CCCCNC(=O)COCCOCCNC(=O)COCCOCCNC(=O)CC[C@H](NC(=O)CCCCCCCCCCCCCCCCCCC(=O)O)C(=O)O)NC(=O)[C@@H](NC(=O)[C@H](CC(=O)O)NC(=O)[C@H](CC(C)C)NC(=O)[C@](C)(Cc1ccccc1)NC(=O)[C@H](CCCCN)NC(=O)[C@H](CO)NC(=O)[C@@H](NC(=O)[C@H](CC(=O)O)NC(=O)[C@H](CO)NC(=O)[C@@H](NC(=O)[C@H](Cc1ccccc1)NC(=O)[C@@H](NC(=O)CNC(=O)[C@H](CCC(N)=O)NC(=O)C(C)(C)NC(=O)[C@@H](N)Cc1c[nH]cn1)[C@@H](C)O)[C@@H](C)O)C(C)C)[C@@H](C)O)C(C)C)C(=O)N[C@@H](CC(C)C)C(=O)NC(C)(C)C(=O)N[C@H](C(=O)N[C@@H](CCC(=O)O)C(=O)O)[C@@H](C)O` [Peptide 488] (H-H[Aib]QGTFTSDVSK[αMeF]LDTK([AEEA-AEEA-γGlu-C20 diacid])RARDFVQWLL[Aib]TE-OH; N-terminus assumed), in assay [1], the EC50 was 202 pM and the “% Relative Potency Ratio” value turned out to be 2.9. Further, in assay [2], the concentration for a half-maximal effect (EC50) came out at 301 pM.

Turning to `CC(C)C[C@H](NC(=O)[C@H](Cc1c[nH]c2ccccc12)NC(=O)[C@H](CCC(N)=O)NC(=O)[C@@H](NC(=O)[C@H](Cc1ccccc1)NC(=O)[C@H](CC(=O)O)NC(=O)[C@H](CCCNC(=N)N)NC(=O)[C@H](C)NC(=O)[C@H](CCCNC(=N)N)NC(=O)[C@H](CCCCNC(=O)COCCOCCNC(=O)COCCOCCNC(=O)CC[C@H](NC(=O)CCCCCCCCCCCCCCCCC(=O)O)C(=O)O)NC(=O)[C@@H](NC(=O)[C@H](CC(=O)O)NC(=O)[C@H](CC(C)C)NC(=O)[C@](C)(Cc1ccccc1)NC(=O)[C@H](CCCCN)NC(=O)[C@H](CO)NC(=O)[C@@H](NC(=O)[C@H](CC(=O)O)NC(=O)[C@H](CO)NC(=O)[C@@H](NC(=O)[C@H](Cc1ccccc1)NC(=O)[C@@H](NC(=O)CNC(=O)[C@H](CCC(N)=O)NC(=O)C(C)(C)NC(=O)[C@@H](N)Cc1c[nH]cn1)[C@@H](C)O)[C@@H](C)O)C(C)C)[C@@H](C)O)C(C)C)C(=O)N[C@@H](CC(C)C)C(=O)NC(C)(C)C(=O)N[C@H](C(=O)N[C@@H](CCC(=O)O)C(N)=O)[C@@H](C)O` [Peptide 489] (H-H[Aib]QGTFTSDVSK[αMeF]LDTK([AEEA-AEEA-γGlu-C18 diacid])RARDFVQWLL[Aib]TE-NH2; N-terminus assumed), the EC50 in assay [1] came out at 22.8 pM; in assay [2], 168 pM. In assay [1], the “% Relative Potency Ratio” value is given as 14.5.

Regarding `CC(C)C[C@H](NC(=O)[C@H](Cc1c[nH]c2ccccc12)NC(=O)[C@H](CCC(N)=O)NC(=O)[C@@H](NC(=O)[C@H](Cc1ccccc1)NC(=O)[C@H](CC(=O)O)NC(=O)[C@H](CCCNC(=N)N)NC(=O)[C@H](C)NC(=O)[C@H](CCCNC(=N)N)NC(=O)[C@H](CCCCNC(=O)COCCOCCNC(=O)COCCOCCNC(=O)CC[C@H](NC(=O)CCCCCCCCCCCCCCCCCCC(=O)O)C(=O)O)NC(=O)[C@@H](NC(=O)[C@H](CC(=O)O)NC(=O)[C@H](CC(C)C)NC(=O)[C@](C)(Cc1ccccc1)NC(=O)[C@H](CCCCN)NC(=O)[C@H](CO)NC(=O)[C@@H](NC(=O)[C@H](CC(=O)O)NC(=O)[C@H](CO)NC(=O)[C@@H](NC(=O)[C@H](Cc1ccccc1)NC(=O)[C@@H](NC(=O)CNC(=O)[C@H](CCC(N)=O)NC(=O)C(C)(C)NC(=O)[C@@H](N)Cc1c[nH]cn1)[C@@H](C)O)[C@@H](C)O)C(C)C)[C@@H](C)O)C(C)C)C(=O)N[C@@H](CC(C)C)C(=O)NC(C)(C)C(=O)N[C@H](C(=O)N[C@@H](CCC(=O)O)C(N)=O)[C@@H](C)O` [Peptide 490] (H-H[Aib]QGTFTSDVSK[αMeF]LDTK([AEEA-AEEA-γGlu-C20 diacid])RARDFVQWLL[Aib]TE-NH2; N-terminus assumed), in assay [1], the EC50 came out at 69 pM and the “% Relative Potency Ratio” value is 11.4. In addition, the EC50 in assay [2] is 396 pM.

Consider `CC(C)C[C@H](NC(=O)[C@H](Cc1c[nH]c2ccccc12)NC(=O)[C@H](CCCNC(=N)N)NC(=O)[C@@H](NC(=O)[C@H](Cc1ccccc1)NC(=O)[C@H](CC(=O)O)NC(=O)[C@H](CCCNC(=N)N)NC(=O)[C@H](C)NC(=O)[C@H](CCCNC(=N)N)NC(=O)[C@H](CCCCNC(=O)COCCOCCNC(=O)COCCOCCNC(=O)CC[C@H](NC(=O)CCCCCCCCCCCCCCCCC(=O)O)C(=O)O)NC(=O)[C@@H](NC(=O)[C@H](CC(=O)O)NC(=O)[C@H](CC(C)C)NC(=O)[C@](C)(Cc1ccccc1)NC(=O)[C@H](CCCCN)NC(=O)[C@H](CO)NC(=O)[C@@H](NC(=O)[C@H](CC(=O)O)NC(=O)[C@H](CO)NC(=O)[C@@H](NC(=O)[C@H](Cc1ccccc1)NC(=O)[C@@H](NC(=O)CNC(=O)[C@H](CCC(N)=O)NC(=O)C(C)(C)NC(=O)[C@@H](N)Cc1c[nH]cn1)[C@@H](C)O)[C@@H](C)O)C(C)C)[C@@H](C)O)C(C)C)C(=O)N[C@@H](CC(C)C)C(=O)NC(C)(C)C(=O)N[C@H](C(=O)N[C@@H](CCC(=O)O)C(=O)O)[C@@H](C)O` [Peptide 491] (H-H[Aib]QGTFTSDVSK[αMeF]LDTK([AEEA-AEEA-γGlu-C18 diacid])RARDFVRWLL[Aib]TE-OH; N-terminus assumed), for which, in assay [1], the EC50 amounted to 73.6 pM and the “% Relative Potency Ratio” value came out at 6.2. In addition, in assay [2], the EC50 was determined as 232 pM.

On to `CC(C)C[C@H](NC(=O)[C@H](Cc1c[nH]c2ccccc12)NC(=O)[C@H](CCCNC(=N)N)NC(=O)[C@@H](NC(=O)[C@H](Cc1ccccc1)NC(=O)[C@H](CC(=O)O)NC(=O)[C@H](CCCNC(=N)N)NC(=O)[C@H](C)NC(=O)[C@H](CCCNC(=N)N)NC(=O)[C@H](CCCCNC(=O)COCCOCCNC(=O)COCCOCCNC(=O)CC[C@H](NC(=O)CCCCCCCCCCCCCCCCCCC(=O)O)C(=O)O)NC(=O)[C@@H](NC(=O)[C@H](CC(=O)O)NC(=O)[C@H](CC(C)C)NC(=O)[C@](C)(Cc1ccccc1)NC(=O)[C@H](CCCCN)NC(=O)[C@H](CO)NC(=O)[C@@H](NC(=O)[C@H](CC(=O)O)NC(=O)[C@H](CO)NC(=O)[C@@H](NC(=O)[C@H](Cc1ccccc1)NC(=O)[C@@H](NC(=O)CNC(=O)[C@H](CCC(N)=O)NC(=O)C(C)(C)NC(=O)[C@@H](N)Cc1c[nH]cn1)[C@@H](C)O)[C@@H](C)O)C(C)C)[C@@H](C)O)C(C)C)C(=O)N[C@@H](CC(C)C)C(=O)NC(C)(C)C(=O)N[C@H](C(=O)N[C@@H](CCC(=O)O)C(=O)O)[C@@H](C)O` [Peptide 492] (H-H[Aib]QGTFTSDVSK[αMeF]LDTK([AEEA-AEEA-γGlu-C20 diacid])RARDFVRWLL[Aib]TE-OH; N-terminus assumed), for which, in assay [1], the EC50 came to 212 pM and the “% Relative Potency Ratio” value turned out to be 3.5. For the same compound, the EC50 in assay [2] was 374 pM.
